Article PMC11726150, “Pre‐ADMET studies of 5‐(3′,4′‐dihydroxyphenyl)‐γ‐valerolactone, the bioactive intestinal metabolite of proanthocyanidins” (Archiv Der Pharmazie, 2024)
“Also recorded” adds a separate entry of the source. Read-outs that look alike come from different tables or passages of the source.

Key:
HepG2 cells = assay: MTT cell viability assay; format: cell-based, human; settings: HepG2, 1.5–50 µM, up to 24 and 48 h
Method: (§1) The effect of test samples on cell viability was measured using an MTT assay. Briefly, exponentially growing 2 × 10^4 cells/200 μL were seeded in 96‐well plates and allowed to grow until reaching their differentiation state. Cells were treated with different concentrations of VL (50–1.6 µM) and positive control camptothecin (30–1 μM) serially diluted in serum‐free medium. After incubation, 10 μL of MTT dye (5 mg/mL stock in PBS) was added to each well, and plates were additionally incubated for 4 h. Further, media were aspirated, and cells were washed with 100 μL of phosphate buffer saline. The formazan blue crystals formed by viable cells were dissolved in 150 μL of DMSO, and the absorbance was measured at 580 nm on a Bio‐Tek, Synergy HT Multi‐Mode, plate reader. The % decrease in viability of sample‐treated cells was calculated compared with vehicle‐treated cells.^[ [46] ^]

MTT cell viability assay [1] = format: cell-based, human; settings: human, Caco2 cells; Caco2, 1.5–50 µM, 6 h exposure; read-out: cells remaining viable
Method: as §1

LS174T cells = assay: MTT cell viability assay; format: cell-based, human; settings: 1.5–50 µM, up to 24 and 48 h
Method: as §1

Caco2 cells = assay: MTT cell viability assay; format: cell-based, human; settings: Caco2, 1.5–50 µM, up to 24 and 48 h
Method: as §1

[2] = Metabolic stability assay with human liver microsomes; format: in vitro ADME
Method: HLMs and S9 fractions were used to determine, respectively, phases I and II metabolism of VL. A mixture of the activating cofactors (NADP^+ and UDPGA) and enzymes (G6PO4 and G6PDH) were used to stimulate the metabolism; in the microsome assay UDPGA was not needed. The final concentrations of cofactors NADPH and UDPGA were 1 mM each, while for the enzymes G6PO4 and G6PDH were 10 mM and 2 U/mL, respectively. The phosphate buffer was prepared as a 100 mM solution, pH 7.4, containing 10 mM magnesium chloride in deionized water. Testosterone and 7‐hydroxycoumarin were used as positive controls for phases I and II metabolism, and stock reference solutions of controls and VL were prepared, respectively, at 5 mM and 10 mM concentration in DMSO, and then diluted to a final test concentration of 10 µM. S9 fraction or microsome, final concentration 1 mg/mL, were preincubated with a test compound for 5 min at 37°C in the phosphate buffer, pH 7.4, and then the reactions were initiated by adding the cofactor mixture. A negative control sample was prepared replacing the reaction enzymes with water in the presence of a reaction mixture and test compound VL. […] T ½ was calculated using the interpolating point method using the nonlinear fit option of GraphPad Prism 8, while intrinsic clearance CL'int (mL/min/kg) was calculated as written in Equation (4) and as reported previously:^[ [23] ^] […]

[3] = Metabolic stability assay with human S9 liver fraction; format: in vitro ADME
Method: HLMs and S9 fractions were used to determine, respectively, phases I and II metabolism of VL. A mixture of the activating cofactors (NADP^+ and UDPGA) and enzymes (G6PO4 and G6PDH) were used to stimulate the metabolism; in the microsome assay UDPGA was not needed. The final concentrations of cofactors NADPH and UDPGA were 1 mM each, while for the enzymes G6PO4 and G6PDH were 10 mM and 2 U/mL, respectively. The phosphate buffer was prepared as a 100 mM solution, pH 7.4, containing 10 mM magnesium chloride in deionized water. Testosterone and 7‐hydroxycoumarin were used as positive controls for phases I and II metabolism, and stock reference solutions of controls and VL were prepared, respectively, at 5 mM and 10 mM concentration in DMSO, and then diluted to a final test concentration of 10 µM. S9 fraction or microsome, final concentration 1 mg/mL, were preincubated with a test compound for 5 min at 37°C in the phosphate buffer, pH 7.4, and then the reactions were initiated by adding the cofactor mixture. A negative control sample was prepared replacing the reaction enzymes with water in the presence of a reaction mixture and test compound VL. At time points 0, 10, 20, 30, 45, 60, 90, and 120 min, 100 µL aliquots of the sample mixture were removed and quenched by the addition of two volumes of ice‐cold 50:50 ACN:MeOH containing the internal standard (cinnamic acid‐d6, 300 ng/mL final concentration). The quenched samples were then stored at −80°C overnight and defrosted before analysis, sonicated for 10 min, and centrifuged at 14,000 rpm for 15 min at 4°C to sediment the precipitated proteins before injection onto ultra performance liquid chromatography‐mass/mass (UPLC‐MS/MS) for analysis. T ½ was calculated using the interpolating point method using the nonlinear fit option of GraphPad Prism 8, while intrinsic clearance CL'int (mL/min/kg) was calculated as written in Equation (4) and as reported previously:^[ [23] ^] (4) CL^′int=0.693×Dose/T½.

PXR = molecular target: T1, PXR (Homo sapiens, UniProt O75469); format: cell-based; set-up: expressed in transfected cells; host or cells: HepG2 and LS174T cells, transient electroporation; settings: HepG2 cells, all concentrations tested (1.5–50 μM), 24 h
T1 sequence (O75469 1-434): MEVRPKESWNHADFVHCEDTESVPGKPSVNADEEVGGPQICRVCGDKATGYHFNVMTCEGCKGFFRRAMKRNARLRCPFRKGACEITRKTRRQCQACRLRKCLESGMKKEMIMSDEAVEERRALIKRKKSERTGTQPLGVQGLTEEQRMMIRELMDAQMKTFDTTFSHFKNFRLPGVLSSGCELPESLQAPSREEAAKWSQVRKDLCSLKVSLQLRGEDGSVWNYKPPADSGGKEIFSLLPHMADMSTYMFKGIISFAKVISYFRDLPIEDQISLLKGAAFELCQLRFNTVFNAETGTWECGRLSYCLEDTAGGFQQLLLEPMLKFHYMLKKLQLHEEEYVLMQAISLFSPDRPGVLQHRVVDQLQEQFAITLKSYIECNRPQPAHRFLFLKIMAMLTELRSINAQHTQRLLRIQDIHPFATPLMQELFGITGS
Method: The PXR activation potential of VL was determined in transiently transfected HepG2 and LS174T cells as described earlier.^[ [50] ^] In brief, 24‐h‐old cells having 70%−80% confluency were trypsinized and transfected with pSG5‐hPXR (25 μg) and PCR‐5 (25 μg) plasmid DNA by electroporation at 180 V (1 pulse for 70 ms). Cells were incubated at room temperature for 8 min and floating dead cells were carefully removed. Cells were seeded in 96‐well plates at a density of 50,000 cells/well. […] Following 24 h of incubation, the culture medium was aspirated and 40 μL of luciferase reagent (Promega Corporation) was added to each well. Luminescence was measured using a Spectramax M5 plate reader (Molecular Devices) and the fold increase in luciferase activity among sample‐treated cells was calculated in comparison with the vehicle‐treated (DMSO) cells.

MTT cell viability assay [4] = format: cell-based, canine; settings: dog, Wt-MDCK cells, 1.5–50 µM, 6 h exposure, read-out: cells remaining viable
Method: as §1

## O=C1CCC(Cc2ccc(O)c(O)c2)O1 (stereo not drawn) [VL, 5‐(3′,4′‐dihydroxyphenyl)‐γ‐valerolactone]
HepG2 cells
  effect on cell viability: no significant effect
MTT cell viability assay [1]
  viability at 6 h: > 90%
LS174T cells
  effect on cell viability: no significant effect
Caco2 cells
  effect on cell viability: no significant effect
[2]; HLM 1 mg/mL, 10 µM
  half‐life t ½: 23.084 min
[2]; human, liver microsomes, pH 7.4, HLM 1 mg/mL, read-out: half‐life t ½
  half-life at 10 µM: 23.1 min
[3]; S9 liver fraction, 120 min
  VL metabolized in the liver fraction: 70.83%
[3]; human S9 fraction 1 mg/mL, 10 µM
  intrinsic clearance: 0.784 µM/min
[3]; liver S9 fraction, pH 7.4, human S9 fraction 1 mg/mL, 10 µM, NADPH + UDPGA, read-out: half‐life t ½
  half-life at 10 µM: 8.72 min
[3]; reaction enzymes replaced with water, data not shown
  stability under negative control experimental conditions: stable
PXR
  PXR transcriptional activity, fold increase vs vehicle: does not increase the PXR activity; also recorded: < twofold
MTT cell viability assay [4]
  viability at 6 h: > 90%
